The record followed here is publication PMC4060991, “The Human Orphan Nuclear Receptor Tailless (TLX, NR2E1) Is Druggable” (PLoS ONE, 2014).

Chain of TLX LBD (Q9Y466 187-385): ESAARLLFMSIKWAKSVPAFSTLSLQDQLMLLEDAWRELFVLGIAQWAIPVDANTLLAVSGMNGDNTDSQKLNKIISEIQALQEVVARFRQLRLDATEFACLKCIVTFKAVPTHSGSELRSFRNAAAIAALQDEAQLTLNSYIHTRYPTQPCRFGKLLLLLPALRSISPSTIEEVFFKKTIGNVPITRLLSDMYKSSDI

This assay addresses TLX LBD (Homo sapiens, UniProt Q9Y466). Put plainly: Differential scanning fluorimetry (DSF) on purified TLX LBD.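 Further: thermal unfolding followed by Sypro-Orange fluorescence (excitation 465 nm, emission 610 nm) in 384-well plates, Tm taken from the first derivative of the denaturation curve, duplicate samples.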 In kind it is binding. On the set-up: cDNA fragments encoding human TLX LBD (a.a. 187–385) were cloned; His6 followed by TEV protease cleavage site (N); made in house; host or cells: E. coli BL21 (DE3) star. Particulars: compound 500 µM. A general note: Differential scanning fluorimetry follows unfolding on heating by fluorescence.
In the case of `O=C(c1ccc(OCCN2CCCCC2)cc1)c1c(-c2ccc(O)cc2)sc2cc(O)ccc12` [Raloxifene, reference compound], the “hit in DSF screen (able to bind TLX LBD, Tm shift 0.9°C or more), Table S1” value was “Hits from DSF”.

For the molecule `CC(=O)[O][Pb]([O]C(C)=O)([c]1ccccc1)[c]1ccccc1` [[acetyloxy-di(phenyl)plumbyl] acetate], the “hit in DSF screen (able to bind TLX LBD, Tm shift 0.9°C or more), Table S1” value was “Hits from DSF”.

As for Daptomycin [reference compound], the “hit in DSF screen (able to bind TLX LBD, Tm shift 0.9°C or more), Table S1” value is on record as “Hits from DSF”.

As to `O=C1c2ccccc2C(=O)C1C(c1ccc([N+](=O)[O-])cc1)C1C(=O)c2ccccc2C1=O` [2-[(1,3-dioxoinden-2-yl)-(4-nitrophenyl)methyl]indene-1,3-dione], the “hit in DSF screen (able to bind TLX LBD, Tm shift 0.9°C or more), Table S1” value was “Hits from DSF”.

Consider `CC[C@H](CO)Nc1nc(NCc2ccccc2)c2ncn(C(C)C)c2n1` [Roscovitine (CYC202), Roscovitine], for which the “hit in DSF screen (able to bind TLX LBD, Tm shift 0.9°C or more), Table S1” value is recorded as “Hits from DSF”.

As to `CC(C)(C)OC(=O)N[C@H]1CCCCC/C=C\[C@@H]2C[C@@]2(C(=O)NS(=O)(=O)C2CC2)NC(=O)[C@@H]2C[C@@H](OC(=O)N3Cc4cccc(F)c4C3)CN2C1=O` [Danoprevir], the “hit in DSF screen (able to bind TLX LBD, Tm shift 0.9°C or more), Table S1” value is “Hits from DSF”.

`Cn1cc(-c2ccc3nnc(Sc4ccc5ncccc5c4)n3n2)cn1` [SGX-523]: the “hit in DSF screen (able to bind TLX LBD, Tm shift 0.9°C or more), Table S1” value is recorded as “Hits from DSF”.

With `[Cl][Cd][Cl]` [Dichlorocadmium], the “hit in DSF screen (able to bind TLX LBD, Tm shift 0.9°C or more), Table S1” value is given as “Hits from DSF”.

Take `COc1cc2c(cc1O)CC[C@@H]1[C@@H]2CC[C@]2(C)[C@@H](O)CC[C@@H]12` [2-Methoxyestradiol]: the “hit in DSF screen (able to bind TLX LBD, Tm shift 0.9°C or more), Table S1” value is “Hits from DSF”.

As for `CC(=O)[C@H]1CC[C@H]2[C@@H]3CCC4=CC(=O)CC[C@]4(C)[C@H]3CC[C@]12C` [Progesterone, reference compound], the “hit in DSF screen (able to bind TLX LBD, Tm shift 0.9°C or more), Table S1” value is “Hits from DSF”.

As to `N#C/C(=C\c1ccc2ccccc2c1)C(=O)c1ccccc1` [(E)-2-(benzoyl)-3-naphthalen-2-ylprop-2-enenitrile], the “hit in DSF screen (able to bind TLX LBD, Tm shift 0.9°C or more), Table S1” value is “Hits from DSF”.

On to `O=NN(CCCl)C(=O)NCc1ccc[n+]([O-])c1` [1-(2-chloroethyl)-1-nitroso-3-[(1-oxidopyridin-1-ium-3-yl)methyl]urea], for which the “hit in DSF screen (able to bind TLX LBD, Tm shift 0.9°C or more), Table S1” value was “Hits from DSF”.

On to `COc1cc(Nc2ncc3c(n2)-c2ccc(Cl)cc2C(c2c(F)cccc2OC)=NC3)ccc1C(=O)O` [MLN8237], for which the “hit in DSF screen (able to bind TLX LBD, Tm shift 0.9°C or more), Table S1” value is on record as “Hits from DSF”.

Turning to `CCP(CC)CC.[Au+].[Cl-]` [Chlorogold; Triethylphosphane], the “hit in DSF screen (able to bind TLX LBD, Tm shift 0.9°C or more), Table S1” value is on record as “Hits from DSF”.

In the case of `CN(C)c1ccc(C=CC(=O)[O-])cc1.CN(C)c1ccc(C=CC(=O)[O-])cc1.[Cu+2]` [copper 3-(4-dimethylaminophenyl)prop-2-enoate], the “hit in DSF screen (able to bind TLX LBD, Tm shift 0.9°C or more), Table S1” value is reported as “Hits from DSF”.

`C[C@]12CC[C@H]3[C@@H](CCC4=CC(=O)CC[C@@]43C)[C@@H]1CC[C@@H]2OC(=O)CCC1CCCC1` [Testosterone cypionate, reference compound]: the “hit in DSF screen (able to bind TLX LBD, Tm shift 0.9°C or more), Table S1” value is “Hits from DSF”.

For the molecule Kauroic acid, the “hit in DSF screen (able to bind TLX LBD, Tm shift 0.9°C or more), Table S1” value was “Hits from DSF”.

Consider `Clc1ccccc1C(c1ccccc1)(c1ccccc1)n1ccnc1` [Clotrimazole, reference compound], for which the “hit in DSF screen (able to bind TLX LBD, Tm shift 0.9°C or more), Table S1” value was “Hits from DSF”.

For `Cc1ccc(NC(=O)c2ccc(CN3CCN(C)CC3)cc2)cc1Nc1nc(-c2cccnc2)cs1` [Masitinib], the “hit in DSF screen (able to bind TLX LBD, Tm shift 0.9°C or more), Table S1” value was “Hits from DSF”.

In the case of `Cc1cc(N)c2ccccc2[n+]1CCCCCCCCCC[n+]1c(C)cc(N)c2ccccc21.[Cl-].[Cl-]` [1-[10-(4-amino-2-methylquinolin-1-ium-1-yl)decyl]-2-methylquinolin-1-ium-4-amine chloride], the “hit in DSF screen (able to bind TLX LBD, Tm shift 0.9°C or more), Table S1” value is listed as “Hits from DSF”.

Consider `CC(=O)[O][Hg][c]1c(C)c(C)c(C)c(C)c1C` [acetyloxy-(2,3,4,5,6-pentamethylphenyl)mercury], for which the “hit in DSF screen (able to bind TLX LBD, Tm shift 0.9°C or more), Table S1” value is “Hits from DSF”.

Consider `CC(C)n1c(/C=C/C(O)CC(O)CC(=O)O)c(-c2ccc(F)cc2)c2ccccc21` (centres unmarked) [Fluvastatin Sodium, reference compound], for which the “hit in DSF screen (able to bind TLX LBD, Tm shift 0.9°C or more), Table S1” value is recorded as “Hits from DSF”.

Regarding `COc1cccc2cc(-c3nc([C@H]4CC[C@H](C(=O)O)CC4)n4ncnc(N)c34)[nH]c12` [OSI-027], the “hit in DSF screen (able to bind TLX LBD, Tm shift 0.9°C or more), Table S1” value is reported as “Hits from DSF”.

As to `CCOC(=O)N1CCC(=C2c3ccc(Cl)cc3CCc3cccnc32)CC1` [Loratadine, reference compound], the “hit in DSF screen (able to bind TLX LBD, Tm shift 0.9°C or more), Table S1” value is recorded as “Hits from DSF”.

Turning to `CNC(=O)ON(C(C)=O)C(=O)NC` [[acetyl(methylcarbamoyl)amino] N-methylcarbamate], the “hit in DSF screen (able to bind TLX LBD, Tm shift 0.9°C or more), Table S1” value is “Hits from DSF”.

For `Cc1cc(C(C)Nc2ccccc2)c2nc(N3CCOCC3)cc(=O)n2c1` (centres unmarked) [TGX-221], the “hit in DSF screen (able to bind TLX LBD, Tm shift 0.9°C or more), Table S1” value is listed as “Hits from DSF”.

Consider `CCCCCCCCCCCCC(O)C(=O)O` (centres unmarked) [2-hydroxytetradecanoic acid], for which the “hit in DSF screen (able to bind TLX LBD, Tm shift 0.9°C or more), Table S1” value is “Hits from DSF”.

With `N#CCNC(=O)c1ccc(-c2ccnc(Nc3ccc(N4CCOCC4)cc3)n2)cc1` [CYT387], the “hit in DSF screen (able to bind TLX LBD, Tm shift 0.9°C or more), Table S1” value is “Hits from DSF”.

On to `CC(C)C1(Cl)CCC2C3(C)CCCC(C)(C(=O)O)C3CC(Cl)C2(Cl)C1Cl` (centres unmarked) [7,8,8a,9-tetrachloro-1,4a-dimethyl-7-propan-2-yl-2,3,4,4b,5,6,8,9,10,10a-decahydrophenanthrene-1-carboxylic acid], for which the “hit in DSF screen (able to bind TLX LBD, Tm shift 0.9°C or more), Table S1” value is “Hits from DSF”.

As for `FC(F)c1nc2ccccc2n1-c1nc(N2CCOCC2)nc(N2CCOCC2)n1` [ZSTK474], the “hit in DSF screen (able to bind TLX LBD, Tm shift 0.9°C or more), Table S1” value is listed as “Hits from DSF”.

`COC1CC(CC2CCC(C)C(C(C)C(=O)O)O2)OC2(OC(C)(C3CCC(C)(C4OC(C5OC(O)(CO)C(C)CC5C)CC4C)O3)CC2C)C1C` (centres unmarked) [2-[6-[[2-[5-[5-[6-hydroxy-6-(hydroxymethyl)-3,5-dimethyloxan-2-yl]-3-methyloxolan-2-yl]-5-methyloxolan-2-yl]-9-methoxy-2,4,10-trimethyl-1,6-dioxaspiro[4.5]decan-7-yl]methyl]-3-methyloxan-2-yl]propanoic acid]: the “hit in DSF screen (able to bind TLX LBD, Tm shift 0.9°C or more), Table S1” value is “Hits from DSF”.

As to `CO[C@H]1C[C@@H]2CC[C@@H](C)[C@@](O)(O2)C(=O)C(=O)N2CCCC[C@H]2C(=O)O[C@H]([C@H](C)C[C@@H]2CC[C@@H](OP(C)(C)=O)[C@H](OC)C2)CC(=O)[C@H](C)/C=C(\C)[C@@H](O)[C@@H](OC)C(=O)[C@H](C)C[C@H](C)/C=C/C=C/C=C/1C` [Deforolimus], the “hit in DSF screen (able to bind TLX LBD, Tm shift 0.9°C or more), Table S1” value is listed as “Hits from DSF”.
